Experiments:
[1] = tested on: TNIK; assay: KINOMEscan; settings: 50000 nM
Description: KINOMEscan™ selectivity screen
(§4) Briefly, Kinase-tagged T7 phage strains were grown in parallel in an E. coli host derived from the BL21 strain. E. coli were grown to log-phase and infected with T7 phage from a frozen stock and incubated with shaking at 32°C until lysis (90-150 minutes). The kinases were produced in HEK-293 cells and subsequently tagged with DNA for qPCR detection. Streptavidin-coated magnetic beads were treated with biotinylated small molecule ligands to generate affinity resins for kinase
(§5) inhibitor or DMSO control was performed in polypropylene 384-well plates for 1 hr at room temperature. After wash with PBS buffer containing 0.05% Tween 20, the beads were incubated in elution buffer (PBS containing 0.05 % Tween 20 and 0.5 μM non-biotinylated affinity ligand) for 30 minutes at room temperature. The kinase concentration in the eluates was measured by qPCR.

[2] = tested on: ABL2; assay: KINOMEscan; settings: 50000 nM
Description: KINOMEscan™ selectivity screen
(§6) The assay was perfor med at DiscoveRx Corporation according the methods published previously5. Briefly, Kinase-tagged T7 phage strains were grown in parallel in an E. coli host derived from the BL21 strain. E. coli were grown to log-phase and infected with T7 phage from a frozen stock and incubated with shaking at 32°C until lysis (90-150 minutes). The kinases were produced in HEK-293 cells and subsequently tagged with DNA for qPCR detection. Streptavidin-coated magnetic beads were treated with biotinylated small molecule ligands to generate affinity resins for kinase
as §5

[3] = tested on: EPHA7; assay: KINOMEscan; settings: 50000 nM
Description: KINOMEscan™ selectivity screen
as §6, §5

[4] = tested on: TGFBR1; assay: KINOMEscan; settings: 50000 nM
Description: KINOMEscan™ selectivity screen
as §6, §5

[5] = tested on: T1, PFCDPK1(P.falciparum); assay: KINOMEscan; type: binding; settings: 50000 nM
T1 construct: purchased DiscoveRx KINOMEscan

[6] = tested on: Akt T308 phosphorylation; assay: Western blot analysis of T308 phosphorylation; type: cell-based; settings: Mus musculus, N2a, 0.5 h; Neuro 2A cells, G7 30 min then IGF 30 min
Description: The following criteria were applied for hit selection from the primary screen: 1, hits in robust curve classes (1/2/3) with efficacy greater than 30% were considered active; 2, these hits were filtered for donor interference; 3, hits were further filtered by reactive and promiscuous functional groups, as previously described4; 4, hits were clustered by structural similarity using Leadscope Hosted Client (Leadscope Inc., Columbus, […]
(§1) Neuro 2A cells were seeded in 12-well plates in DMEM containing 5% FBS for 24 hr.
(§2) After overnight serum starvation (in 0% FBS DMEM), cells were incubated for 30 min at 37 °C with G7 or LY294002 or Torin 1 (Sigma Aldrich) at various concentrations, or DMSO control. IGF-1 was added to each well at a final concentration of 100 ng/mL. After 30-min incubation cells were washed with cold PBS and lysed with 50 µL lysis buffer containing 1% Triton X-100 and protease/phosphatase inhibitors (Cell Signaling Technology) or RIPA buffer (Santa Cruz Biotech). […]
(§3) anti- GAPDH (14C10) antibody (#2118) (all antibodies were from Cell Signaling Technology unless indicated, 1:1000 dilution was used) at 4°C overnight, washed three times with TBS-T, then incubated with peroxidase-conjugated secondary antibody (Sigma-Aldrich) for 1 hr at room temperature. […] Band intensity was quantitated using Kodak 1D imaging analysis software. […]

[7] = tested on: JNK2; assay: KINOMEscan; settings: 50000 nM
Description: KINOMEscan™ selectivity screen
as §6, §5

[8] = tested on: Akt S473 phosphorylation; assay: Western blot analysis of S473 phosphorylation; type: cell-based; settings: Mus musculus, N2a, 0.5 h; Neuro 2A cells, IGF stimulation 30 min; read-out: IC50 of IGF-induced S473 phosphorylation
Description: as §1
as §2, with “Biotech). Samples were electrophoresed in 4–12% Bis-Tris gels (Life Technologies) at 150 V using MOPS SDS running buffer. Proteins were transferred electrophoretically to a PVDF or nitrocellulose membrane. For detection of cleaved” for “Biotech).”
caspase 3 a Trans-Blot Turbo Transfer System (Bio-Rad, 25 V for 25 min) with PVDF membrane were used. […]
as §3

[9] = tested on: MEK3; assay: KINOMEscan; settings: 50000 nM
Description: KINOMEscan™ selectivity screen
as §6, §5

[10] = tested on: CDK11; assay: KINOMEscan; settings: 50000 nM
Description: KINOMEscan™ selectivity screen
as §6, §5

[11] = tested on: AMPK-alpha2; assay: KINOMEscan; settings: 50000 nM
Description: KINOMEscan™ selectivity screen
as §6, §5

[12] = tested on: PIK3C2B; assay: KINOMEscan; settings: 50000 nM
Description: KINOMEscan™ selectivity screen
as §4, §5

[13] = tested on: DDR1; assay: KINOMEscan; settings: 50000 nM
Description: KINOMEscan™ selectivity screen
as §6, §5

[14] = tested on: CAMK2B; assay: KINOMEscan; settings: 50000 nM
Description: KINOMEscan™ selectivity screen
as §4, §5

[15] = tested on: NLK; assay: KINOMEscan; settings: 50000 nM
Description: KINOMEscan™ selectivity screen
as §6, §5

[16] = tested on: TEC; assay: KINOMEscan; settings: 50000 nM
Description: KINOMEscan™ selectivity screen
as §4, §5

[17] = tested on: ABL1(Q252H)-nonphosphorylated; assay: KINOMEscan; settings: 50000 nM
Description: KINOMEscan™ selectivity screen
as §6, §5

[18] = tested on: ABL1(F317I)-phosphorylated; assay: KINOMEscan; settings: 50000 nM
Description: KINOMEscan™ selectivity screen
as §6, §5

[19] = tested on: EPHA2; assay: KINOMEscan; settings: 50000 nM
Description: KINOMEscan™ selectivity screen
as §4, §5

[20] = tested on: EPHB1; assay: KINOMEscan; settings: 50000 nM
Description: KINOMEscan™ selectivity screen
as §4, §5

[21] = tested on: FLT3; assay: KINOMEscan; settings: 50000 nM
Description: KINOMEscan™ selectivity screen
as §6, §5

[22] = tested on: TESK1; assay: KINOMEscan; settings: 50000 nM
Description: KINOMEscan™ selectivity screen
as §6, §5

[23] = tested on: RSK3(Kin.Dom.2-C-terminal); assay: KINOMEscan; settings: 50000 nM
Description: KINOMEscan™ selectivity screen
as §6, §5

[24] = tested on: IRAK1; assay: KINOMEscan; settings: 50000 nM
Description: KINOMEscan™ selectivity screen
as §6, §5

[25] = tested on: ERK5; assay: KINOMEscan; settings: 50000 nM
Description: KINOMEscan™ selectivity screen
as §4, §5

[26] = tested on: FLT1; assay: KINOMEscan; settings: 50000 nM
Description: KINOMEscan™ selectivity screen
as §6, §5

[27] = tested on: FLT3(D835Y); assay: KINOMEscan; settings: 50000 nM
Description: KINOMEscan™ selectivity screen
as §6, §5

[28] = tested on: PHKG2; assay: KINOMEscan; settings: 50000 nM
Description: KINOMEscan™ selectivity screen
as §4, §5

[29] = tested on: TTK; assay: KINOMEscan; settings: 50000 nM
Description: KINOMEscan™ selectivity screen
as §4, §5

[30] = tested on: ALK(L1196M); assay: KINOMEscan; settings: 50000 nM
Description: KINOMEscan™ selectivity screen
as §6, §5

[31] = tested on: FLT3(D835H); assay: KINOMEscan; settings: 50000 nM
Description: KINOMEscan™ selectivity screen
as §6, §5

[32] = tested on: ABL1(E255K)-phosphorylated; assay: KINOMEscan; settings: 50000 nM
Description: KINOMEscan™ selectivity screen
as §6, §5

[33] = tested on: WNK3; assay: KINOMEscan; settings: 50000 nM
Description: KINOMEscan™ selectivity screen
as §6, §5

[34] = tested on: DYRK1A; assay: KINOMEscan; settings: 50000 nM
Description: KINOMEscan™ selectivity screen
as §6, §5

SMILES: Oc1cc(-c2ccccc2)c2ccccc2n1 [G7, 4-phenylquinolin-2(1H)-one]
- Percent Control [1]: 60%
- Percent Control [2]: 94%
- Percent Control [3]: 89%
- Percent Control [4]: 100%
- Percent Control [5]: 83%
- IC50 [6]: 4.9 µM
- Percent Control [7]: 68%
- IC50 [8]: 18 µM
- Percent Control [9]: 81%
- Percent Control [10]: 91%
- Percent Control [11]: 97%
- Percent Control [12]: 100%
- Percent Control [13]: 84%
- Percent Control [14]: 92%
- Percent Control [15]: 82%
- Percent Control [16]: 71%
- Percent Control [17]: 46%
- Percent Control [18]: 72%
- Percent Control [19]: 100%
- Percent Control [20]: 91%
- Percent Control [21]: 13%
- Percent Control [22]: 100%
- Percent Control [23]: 59%
- Percent Control [24]: 53%
- Percent Control [25]: 100%
- Percent Control [26]: 81%
- Percent Control [27]: 33%
- Percent Control [28]: 91%
- Percent Control [29]: 24%
- Percent Control [30]: 85%
- Percent Control [31]: 34%
- Percent Control [32]: 56%
- Percent Control [33]: 98%
- Percent Control [34]: 54%

From PMC5601486, “Identification of 4-phenylquinolin-2(1H)-one as a specific allosteric inhibitor of Akt” (Scientific Reports, 2017)
